Test results taken from publication PMC6151428, “Discovery of Novel N-Substituted Prolinamido Indazoles as Potent Rho Kinase Inhibitors and Vasorelaxation Agents” (Molecules : A Journal of Synthetic Chemistry and Natural …, 2017).
pEC50, pIC50: −log10 of the molar value.

Columns and labels:
ROCK I = biological target: T1, ROCK I (Homo sapiens, UniProt Q13464); test: Rho kinase activity assay (Cyclex CY-1160 kit); type: biochemical; conditions: for pIC50: a: means of multiple experiments (N = 4), errors within 30% of the mean, b: single determinations, read-out: IC50 against ROCK I; for ROCK I activity compared in words: comparison with DL0805 or between series; for fold more active than DL0805 (ROCK I IC50): relative to DL0805 IC50 6.7 μM
T1 construct: purchased Cyclex, Nagoya, Japan CY-1160
Protocol: Briefly, the compounds at 20 μM were pre-incubated in a system wherein ROCK I (0.02 ng/μL) phosphorylates the kinase substrate’s myosin-binding subunit (MBS) pre-absorbed onto the microplate in the presence of Mg^2+ and ATP. Then, the system was washed after incubation at 30 °C for 30 min. 100 μL of horseradish peroxidase-conjugated anti-AF20 antibody was added to the wells and then incubated for 30 min at room temperature. The reaction system was then incubated with the substrate tetra-methylbenzidine (TMB), which can be catalyzed from a colorless solution to a blue solution. The absorbance was measured at a wavelength of 450 nm on a microplate reader. The color reflects the relative level of ROCK I activity. The inhibitory rates of the compounds on ROCK I were obtained from OD 450 nm and the IC50 values were calculated by nonlinear regression.

rat aortic rings [1] = test: Vasorelaxant activity test, high-potassium model; conditions: rat aortic rings constricted with high K+ (60 mmol/L); a: mean N = 6; b: single determination; -- = No activity
From the text: (§1) Abnormalities in the Rho/ROCK signaling pathway are associated with various cardiovascular diseases, especially hypertension. The inhibition of the Rho/ROCK pathway can cause the vessels to relax. The norepinephrine (NE)- or potassium chloride (KCl)-induced model of the rat aortic ring can trigger sustained vessel contraction and is usually used to evaluate vasorelaxant activity. DL0805 has shown vasorelaxant activity. Therefore, the nine compounds with significant inhibition against ROCK I were further tested for their vasorelaxant activity in rat aortic rings in both the high-potassium and NE models (Table 3). […] The potent active compound 4b with excellent activity has been further evaluated, and further pharmacokinetic and safety evaluations are in progress.
(§2) Male Sprague-Dawley rats weighing 240–280 g (Vital River Laboratories, Beijing, China) were maintained in a 12-h light/dark cycle at 24 °C in a relative humidity of 60% room, and received food and water ad libitum. The animal care and handling were performed in accordance with the Guide for the Care and Use of Laboratory Animals published by the US National Institutes of Health and the Laboratories Institutional Animal Care and Use Committee of the Chinese Academy of Medical Science and Peking Union Medical College (ethic approval number: 00001012).
(§3) The vasorelaxant activity assay was performed as described previously. Briefly, the descending thoracic aorta was isolated after rats were euthanized by cervical dislocation. Then, the aorta was cut into ring segments (3–4 mm in length). The endothelial layer of the aorta was destroyed by gently rubbing the luminal surface with a moist cotton swab when necessary. Two stainless-steel triangles were inserted into the lumen of each ring. One triangle was fixed, and the other attached to a force transducer. Changes in isometric force were recorded on a BIOPAC polygraph (MP100WSW, Biopac Systems, Inc, Goleta, CA, USA). The rings were mounted in organ baths containing 10 mL Krebs-Henseleit (K-H) buffer with the following composition (mM): NaCl 120, KCl 4.8, MgSO4 1.4, KH2PO4 1.2, glucose 11.0, CaCl2 2.5, NaHCO3 25.0 and EDTA 0.01. The K-H buffer was continuously bubbled with 95% O2/5% CO2 at 37 °C. Rings were allowed to equilibrate for 60 min at a resting tension of 1.2 g with changes of buffer every 20 min.
(§4) After the equilibration period, the aortic rings were constricted with a high K^+ (60 mM) K-H solution to stimulate the tissue and to test its availability. Then, the rings were washed with normal K-H buffer to restore the basic tension of 1.2 g. The aortic rings were then stimulated with a high K^+ (60 mmol/L) K-H buffer ornorepinephrine (1 μM) to evaluate the vasorelaxant effects of the compounds. When the contraction reached the platform, compounds were added to the bath in batches at 5-min intervals to reach the accumulative concentrations of 1, 2, 5, 10, 25 and 50 μM. The tension of vessels was recorded and nonlinear regression was used to calculate the EC50 values.

rat aortic rings [2] = test: Vasorelaxant activity test, NE model; conditions: rat aortic rings constricted with norepinephrine (1 μM); a: mean N = 6; b: single determination; -- = No activity
From the text: as §1, §2, §3, §4

rat aortic rings [3] = test: Ex-vivo vasorelaxant activity in rat aortic rings (model not specified)
From the text: as §1
The vasorelaxant activity assay was performed as described previously. Briefly, the descending thoracic aorta was isolated after rats were euthanized by cervical dislocation. Then, the aorta was cut into ring segments (3–4 mm in length). […] Changes in isometric force were recorded on a BIOPAC polygraph (MP100WSW, Biopac Systems, Inc, Goleta, CA, USA). […]
After the equilibration period, the aortic rings were constricted with a high K^+ (60 mM) K-H solution to stimulate the tissue and to test its availability. […] The tension of vessels was recorded and nonlinear regression was used to calculate the EC50 values.

[4] = compound concentration 20 μM, single determinations

T1 sequence (Q13464 whole entry, species assumed): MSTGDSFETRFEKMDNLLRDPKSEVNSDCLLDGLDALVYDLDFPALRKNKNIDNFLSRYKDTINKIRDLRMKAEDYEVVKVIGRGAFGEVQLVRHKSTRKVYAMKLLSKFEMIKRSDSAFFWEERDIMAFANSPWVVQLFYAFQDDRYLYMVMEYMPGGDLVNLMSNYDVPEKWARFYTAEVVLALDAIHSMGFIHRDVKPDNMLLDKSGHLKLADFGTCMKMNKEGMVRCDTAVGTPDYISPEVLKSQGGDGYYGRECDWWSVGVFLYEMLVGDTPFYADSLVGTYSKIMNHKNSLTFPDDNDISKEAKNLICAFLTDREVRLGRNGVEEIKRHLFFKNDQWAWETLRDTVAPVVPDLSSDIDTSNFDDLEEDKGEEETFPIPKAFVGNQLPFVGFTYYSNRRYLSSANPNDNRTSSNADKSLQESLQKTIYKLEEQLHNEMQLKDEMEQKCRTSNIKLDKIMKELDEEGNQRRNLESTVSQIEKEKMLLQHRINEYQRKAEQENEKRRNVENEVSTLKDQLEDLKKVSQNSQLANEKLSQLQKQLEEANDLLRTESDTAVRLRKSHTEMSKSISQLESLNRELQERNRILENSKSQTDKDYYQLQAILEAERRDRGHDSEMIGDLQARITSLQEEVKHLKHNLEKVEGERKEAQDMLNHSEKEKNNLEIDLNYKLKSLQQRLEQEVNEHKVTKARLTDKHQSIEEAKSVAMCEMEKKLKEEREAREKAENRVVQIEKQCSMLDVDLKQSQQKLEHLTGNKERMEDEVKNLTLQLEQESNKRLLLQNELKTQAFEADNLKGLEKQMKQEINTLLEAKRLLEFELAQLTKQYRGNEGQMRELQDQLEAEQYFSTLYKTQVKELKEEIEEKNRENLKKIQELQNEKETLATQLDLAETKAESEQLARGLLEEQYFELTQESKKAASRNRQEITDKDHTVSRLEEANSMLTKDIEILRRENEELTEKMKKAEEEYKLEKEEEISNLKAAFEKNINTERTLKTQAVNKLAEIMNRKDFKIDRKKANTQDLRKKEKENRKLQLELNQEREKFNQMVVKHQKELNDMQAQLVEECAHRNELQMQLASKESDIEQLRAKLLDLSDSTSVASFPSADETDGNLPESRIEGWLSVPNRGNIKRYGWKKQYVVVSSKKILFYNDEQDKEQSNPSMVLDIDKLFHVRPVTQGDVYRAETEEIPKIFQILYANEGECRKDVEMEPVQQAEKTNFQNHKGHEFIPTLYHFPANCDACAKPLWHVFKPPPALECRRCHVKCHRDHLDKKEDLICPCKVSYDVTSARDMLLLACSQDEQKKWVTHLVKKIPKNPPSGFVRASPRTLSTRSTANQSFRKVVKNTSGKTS

melting point	pIC50 (ROCK I)	inhibition at 20 µM (ROCK I; [4])	pEC50 (rat aortic rings [1])	pEC50 (rat aortic rings [2])	ROCK I activity compared in words (ROCK I)	fold more active than DL0805 (ROCK I IC50) (ROCK I)	% Inhibition of ROCK I (ROCK I; [4])	Compound	vasorelaxant activity compared with fasudil (rat aortic rings [3])
203 to 205 °C								Cc1ccc(CN2CCC[C@@H]2C(=O)Nc2ccc3[nH]ncc3c2)cc1 [Compound 2e, (R)-N-(1H-Indazol-5-yl)-1-(4-methylbenzyl)pyrrolidine-2-carboxamide]	
203 to 204 °C	5.14	73.9%	5.22	4.94				O=C(Nc1ccc2[nH]ncc2c1)[C@@H]1CCN(Cc2ccccc2)C1 [Compound 4i, (R)-1-Benzyl-N-(1H-indazol-5-yl)pyrrolidine-3-carboxamide]	
177 to 178 °C		45.4%						O=C(Nc1ccc2[nH]ncc2c1)C1CCN(C(=O)c2ccc([N+](=O)[O-])cc2)C1 (centres unmarked) [Compound 5e, N-(1H-Indazol-5-yl)-1-(4-nitrobenzoyl)pyrrolidine-3-carboxamide]	
195 to 197 °C		23.7%						O=C(Nc1ccc2cn[nH]c2c1)[C@@H]1CCCN1Cc1ccccc1 [Compound 3c, (S)-1-Benzyl-N-(1H-indazol-6-yl)pyrrolidine-2-carboxamide]	
250 to 251 °C		27.9%						O=C(Nc1ccc2[nH]ncc2c1)C1CCN(C(=O)c2ccc(Br)cc2)C1 (centres unmarked) [Compound 5d, 1-(4-Bromobenzoyl)-N-(1H-indazol-5-yl)pyrrolidine-3-carboxamide]	
202 to 204 °C		24.5%						N#Cc1ccc(CN2CCC(C(=O)Nc3ccc4[nH]ncc4c3)C2)cc1 (centres unmarked) [Compound 4f, 1-(4-Cyanobenzyl)-N-(1H-indazol-5-yl)pyrrolidine-3-carboxamide]	
			5.26	5.33				O=S(=O)(c1cccc2cnccc12)N1CCCNCC1 [fasudil, reference compound]	
225 to 227 °C	5.14	55.2%	< 4.30	< 4.30				O=C(Nc1ccc2[nH]ncc2c1)C1CCN(C(=O)c2ccc(Cl)cc2)C1 (centres unmarked) [Compound 5f, 1-(4-Chlorobenzoyl)-N-(1H-indazol-5-yl)pyrrolidine-3-carboxamide]	
	6.77	75.8%	5.46	5.39	activity profiles superior to DL0805	39 fold		Cc1ccc(CN2CCC(C(=O)Nc3ccc4[nH]ncc4c3)C2)cc1 (centres unmarked) [Compound 4b, N-(1H-Indazol-5-yl)-1-(4-methylbenzyl)pyrrolidine-3-carboxamide]	comparable vasorelaxant activity to the approved drug fasudil
	5.73	53.3%	5.24	5.25	activity profiles superior to DL0805			COc1ccc(CN2CCC(C(=O)Nc3ccc4[nH]ncc4c3)C2)cc1 (centres unmarked) [Compound 4c, N-(1H-Indazol-5-yl)-1-(4-methoxybenzyl)pyrrolidine-3-carboxamide]	
203 to 204 °C	6.57	73.2%	5.40	5.25	activity profiles superior to DL0805	24 fold		O=C(Nc1ccc2[nH]ncc2c1)C1CCN(Cc2ccccc2)C1 (centres unmarked) [Compound 4a, 1-Benzyl-N-(1H-indazol-5-yl)pyrrolidine-3-carboxamide]	comparable vasorelaxant activity to the approved drug fasudil
204 to 206 °C		21.3%						Cc1ccc(CN2CCC[C@H]2C(=O)Nc2ccc3[nH]ncc3c2)cc1 [Compound 2f, (S)-N-(1H-Indazol-5-yl)-1-(4-methylbenzyl)pyrrolidine-2-carboxamide]	
							44.7%	N-(1H-Indazol-5-yl)-1-(4-methoxybenzyl)pyrrolidine-3-carboxamide [Compound 4e]	
195 to 196 °C		16%						O=C(Nc1ccc2cn[nH]c2c1)C1CCCN1Cc1ccccc1 (centres unmarked) [Compound 3a, 1-Benzyl-N-(1H-indazol-6-yl)pyrrolidine-2-carboxamide]	
192 to 193 °C		15%						O=C(Nc1ccc2cn[nH]c2c1)[C@H]1CCCN1Cc1ccccc1 [Compound 3b, (R)-1-Benzyl-N-(1H-indazol-6-yl)pyrrolidine-2-carboxamide]	
224 to 226 °C	4.94	54.9%	4.22	4.81				Cc1ccc(C(=O)N2CCC(C(=O)Nc3ccc4[nH]ncc4c3)C2)cc1 (centres unmarked) [Compound 5b, N-(1H-Indazol-5-yl)-1-(4-methylbenzoyl)pyrrolidine-3-carboxamide]	
202 to 203 °C	5.85	63.8%	4.71	5.05	activity profiles superior to DL0805			O=C(Nc1ccc2[nH]ncc2c1)C1CCN(Cc2ccc(F)cc2)C1 (centres unmarked) [Compound 4g, 1-(4-Fluorobenzyl)-N-(1H-indazol-5-yl)pyrrolidine-3-carboxamide]	
199 to 201 °C		24.3%						O=C(Nc1ccc2[nH]ncc2c1)[C@H]1CCCN1Cc1ccccc1 [Compound 2b, (R)-1-Benzyl-N-(1H-indazol-5-yl)pyrrolidine-2-carboxamide]	
200 to 201 °C		27.2%						O=C(Nc1ccc2[nH]ncc2c1)C1CCCN1Cc1ccccc1 (centres unmarked) [Compound 2a, 1-Benzyl-N-(1H-indazol-5-yl)pyrrolidine-2-carboxamide]	
211 to 213 °C		42.5%						O=C(Nc1ccc2[nH]ncc2c1)C1CCN(C(=O)c2ccccc2)C1 (centres unmarked) [Compound 5a, 1-Benzoyl-N-(1H-indazol-5-yl)pyrrolidine-3-carboxamide]	
200 to 202 °C		26.6%						Cc1ccc(CN2CCCC2C(=O)Nc2ccc3[nH]ncc3c2)cc1 (centres unmarked) [Compound 2d, N-(1H-Indazol-5-yl)-1-(4-methylbenzyl)pyrrolidine-2-carboxamide]	
235 to 236 °C	6.29	62.5%	4.24	4.33	activity profiles superior to DL0805			O=C(Nc1ccc2[nH]ncc2c1)C1CCN(Cc2ccc(Br)cc2)C1 (centres unmarked) [Compound 4d, 1-(4-Bromobenzyl)-N-(1H-indazol-5-yl)pyrrolidine-3-carboxamide]	
202 to 203 °C		24.6%						O=C(Nc1ccc2[nH]ncc2c1)[C@@H]1CCCN1Cc1ccccc1 [Compound 2c, (S)-1-Benzyl-N-(1H-indazol-5-yl)pyrrolidine-2-carboxamide]	
242 to 244 °C		19.1%						COc1ccc(C(=O)N2CCC(C(=O)Nc3ccc4[nH]ncc4c3)C2)cc1 (centres unmarked) [Compound 5c, N-(1H-Indazol-5-yl)-1-(4-methoxybenzoyl)pyrrolidine-3-carboxamide]	
203 to 204 °C	6.38	54.8%	4.49	< 4.30	activity profiles superior to DL0805			O=C(Nc1ccc2[nH]ncc2c1)[C@H]1CCN(Cc2ccccc2)C1 [Compound 4h, (S)-1-Benzyl-N-(1H-indazol-5-yl)pyrrolidine-3-carboxamide]	
